In test [1] the test system is Radical scavenging activity. Description: Hydroxyl radical scavenging activity at 2 mM. It is filed as functional.
Test [2] deals with Radical scavenging activity. The test is described as follows: Hydroxyl radical scavenging activity. It is filed as functional.

Structures are written as SMILES.

As usually defined, the inhibition is the relative decrease from the control value, in per cent. The low end stands for a weak effect, the high end for a strong effect. On to `CC(C)=CCC[C@@](C)(O)[C@H]1CC[C@]2(C)[C@@H]1[C@H](O)C[C@@H]1[C@@]3(C)CC[C@H](O[C@@H]4O[C@H](CO)[C@@H](O)[C@H](O)[C@H]4O[C@@H]4O[C@H](CO)[C@@H](O)[C@H](O)[C@H]4O)C(C)(C)[C@@H]3CC[C@]12C`, for which the inhibition in test [1] is 72%.
For orientation: IC50 means the point on the concentration scale where inhibition reaches its midpoint. The low end stands for greater potency, the high end for weaker potency. As to `CC(C)=CCC[C@](C)(O)[C@H]1CC[C@]2(C)[C@@H]1[C@H](O)C[C@@H]1[C@@]3(C)CC[C@H](O[C@@H]4O[C@H](CO)[C@@H](O)[C@H](O)[C@H]4O[C@@H]4O[C@H](CO)[C@@H](O)[C@H](O)[C@H]4O)C(C)(C)[C@@H]3CC[C@]12C`, in test [1], the inhibition was found to be 20%. In test [2], this compound displayed an IC50 of 440 µM.
In test [2], `O=C(O[C@@H]1Cc2c(O)cc(O)cc2O[C@@H]1c1cc(O)c(O)c(O)c1)c1cc(O)c(O)c(O)c1` [EPIGALOCATECHIN GALLATE] had a half-inhibitory concentration (IC50) of 3760 µM.
Turning to `C=C(CCC=C(C)C)[C@H]1CC[C@]2(C)[C@@H]1[C@H](O)C[C@@H]1[C@@]3(C)CC[C@H](O[C@@H]4O[C@H](CO)[C@@H](O)[C@H](O)[C@H]4O[C@@H]4O[C@H](CO)[C@@H](O)[C@H](O)[C@H]4O)C(C)(C)[C@@H]3CC[C@]12C`, the inhibition in test [1] was found to be 68%.
In test [1], `CC(C)=CC/C=C(\C)[C@H]1CC[C@]2(C)[C@@H]1[C@H](O)C[C@@H]1[C@@]3(C)CC[C@H](O[C@@H]4O[C@H](CO)[C@@H](O)[C@H](O)[C@H]4O[C@@H]4O[C@H](CO)[C@@H](O)[C@H](O)[C@H]4O)C(C)(C)[C@@H]3CC[C@]12C` [GINSENOSIDE RG5] returned an inhibition of 16%. The IC50 in test [2] stood at 150 µM.

The record behind these values is ChEMBL document CHEMBL1146894, “Stereospecificity in hydroxyl radical scavenging activities of four ginsenosides produced by heat processing” (Bioorg Med Chem Lett, 2006).
